# Test results from patent US20040186166A1, “Cannabinoid analogs as peroxisome proliferator activated nuclear receptor gamma activators” (priority 2002, published 2004).
# Columns and labels:
# [1] = IL-1β and TNFα injected into subcutaneous air pouches, mice; cited from earlier work
# [2] = target: T1, PPARγ / GST-DRIP205 (amino acids 527-970) (Mus musculus, UniProt P37238); assay: GST pull-down assay, PPARγ with GST-DRIP205; type: binding; conditions: 20 μM AJA
# T1 construct: made in house; host or cells: PPARγ1: reticulocyte lysate; GST-DRIP205: E. coli BL21, kept on glutathione-Sepharose beads
# T1 sequence (Q15648 527-970 partner limits assumed, one chain of several): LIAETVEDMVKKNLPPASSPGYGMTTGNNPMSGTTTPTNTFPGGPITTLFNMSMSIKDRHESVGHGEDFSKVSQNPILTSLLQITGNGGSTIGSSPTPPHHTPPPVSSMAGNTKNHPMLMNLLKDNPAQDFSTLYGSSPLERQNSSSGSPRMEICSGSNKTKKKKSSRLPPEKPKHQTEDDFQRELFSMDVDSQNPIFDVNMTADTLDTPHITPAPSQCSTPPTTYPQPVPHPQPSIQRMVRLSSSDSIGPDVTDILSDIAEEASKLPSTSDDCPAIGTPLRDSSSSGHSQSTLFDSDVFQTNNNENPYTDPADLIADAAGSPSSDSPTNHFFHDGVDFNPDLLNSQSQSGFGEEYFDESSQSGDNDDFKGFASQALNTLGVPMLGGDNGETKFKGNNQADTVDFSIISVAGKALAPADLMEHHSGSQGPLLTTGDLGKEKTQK
# Experimental: (§1) The glutathione S-transferase (GST)-DRIP205 (amino acid 527-970) and GST-RAC3 RID (amino acid 613-752) fusion proteins were expressed in BL21 cells by induction with 0.1 mM isopropyl-β-D-thiogalactopyranoside (IPTG) at room temperature for 4 hours. The bacterial pellet was resuspended in STE buffer (150 mM NaCl, 10 mM Tris pH 8.0, 1 mM EDTA), containing 5 mM dithiothreitol (DTT), 1 mM phenylmethlsulfonyl fluoride (PMSF) and 1.5% Sarkosyl. The cell suspension was sonicated and centrifuged at 7400 rpm at 4° C. for 30 minutes. The supernatant was isolated and 0.02% Triton-X 100 was added, and the mixture was then incubated with 1 ml 50% slurry of glutathione-Sepharose beads on a rotator at 4° C. for 30 minutes. The beads were spun down at 3000 rpm for 10 minutes, the supernatant was removed, and the beads were suspended in 1 ml cold PBS.
# (§2) Approximately 5 μg of GST-DRIP205 or GST-RAC3 bound on glutathione-Sepharose beads and 4 μl ^35S-methionine-labeled mPPARγ1 were incubated with the indicated concentrations of AJA, GW347845, or vehicle alone in H buffer (20 mM Hepes [pH 7.7], 75 mM KCl, 0.1 mM EDTA, 2.5 mM MgCl2, 0.05% NP40, 0.1 mM methionine, 1 mM DTT) containing 1 mg/ml bovine serum albumin (BSA) on a rotator at 4° C. overnight. After three washes with cold PBS, the bound protein was eluted in SDS sample buffer and boiled for 10 min before SDS-PAGE and autoradiography. […]
# PPARα = target: T2, PPARα (Mus musculus, UniProt P23204); assay: Partial protease (trypsin) digestion assay, PPARα; type: binding; conditions: 2, 20 and 100 μM AJA
# T2 construct: expressed in transfected cells; host or cells: HEK293 / HEK293T
# T2 sequence (P23204 1-468): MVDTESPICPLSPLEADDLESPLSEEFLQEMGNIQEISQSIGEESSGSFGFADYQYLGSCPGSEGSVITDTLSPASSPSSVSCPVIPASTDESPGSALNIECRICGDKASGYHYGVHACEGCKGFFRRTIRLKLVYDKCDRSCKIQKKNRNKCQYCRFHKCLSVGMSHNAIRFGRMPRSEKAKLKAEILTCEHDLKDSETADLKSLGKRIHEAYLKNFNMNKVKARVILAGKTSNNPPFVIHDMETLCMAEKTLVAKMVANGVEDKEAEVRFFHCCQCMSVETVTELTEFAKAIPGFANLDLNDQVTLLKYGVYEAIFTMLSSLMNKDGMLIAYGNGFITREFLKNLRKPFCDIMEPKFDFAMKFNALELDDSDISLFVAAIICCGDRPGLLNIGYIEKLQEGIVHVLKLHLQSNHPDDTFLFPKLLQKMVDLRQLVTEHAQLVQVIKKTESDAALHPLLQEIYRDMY
# Experimental: Partial protease digestion was carried out as described by Leng et. al. (J Steroid Biochem Mol Biol 46:643-61, 1993). PPAR proteins were made by in vitro transcription/translation reactions in reticulocyte lysate according to the manufacture's instructions (Promega). AJA, GW347845, or vehicle alone was incubated with the 35S-labeled PPARs at room temperature for one hour before trypsin digestion. Reactions were stopped by boiling in SDS-containing sample buffer, and lysates were subjected to SDS-PAGE and autoradiography.
# The PPAR proteins were synthesized and labeled with ^35S-methionine in reticulocyte lysate and incubated with AJA, GW347845, or vehicle alone at room temperature for one hour before trypsin digestion. The reactions were terminated by boiling in SDS-containing protein sample buffer. The proteolytic patterns of PPAR proteins were then analyzed by SDS-PAGE and autoradiography, and compared with vehicle-treated control samples.
# The AJA concentrations required to protect PPARγ from trypsin digestion were further measured.
# [3] = target: T3, PPARγ / GST-RAC3 (amino acids 613-752) (Mus musculus, UniProt P37238); assay: GST pull-down assay, PPARγ with GST-RAC3; type: binding; conditions: 20 μM AJA
# T3 construct: made in house; host or cells: PPARγ1: reticulocyte lysate; GST-RAC3: E. coli BL21, kept on glutathione-Sepharose beads
# T3 sequence (P37238 1-475 isoform P37238-2): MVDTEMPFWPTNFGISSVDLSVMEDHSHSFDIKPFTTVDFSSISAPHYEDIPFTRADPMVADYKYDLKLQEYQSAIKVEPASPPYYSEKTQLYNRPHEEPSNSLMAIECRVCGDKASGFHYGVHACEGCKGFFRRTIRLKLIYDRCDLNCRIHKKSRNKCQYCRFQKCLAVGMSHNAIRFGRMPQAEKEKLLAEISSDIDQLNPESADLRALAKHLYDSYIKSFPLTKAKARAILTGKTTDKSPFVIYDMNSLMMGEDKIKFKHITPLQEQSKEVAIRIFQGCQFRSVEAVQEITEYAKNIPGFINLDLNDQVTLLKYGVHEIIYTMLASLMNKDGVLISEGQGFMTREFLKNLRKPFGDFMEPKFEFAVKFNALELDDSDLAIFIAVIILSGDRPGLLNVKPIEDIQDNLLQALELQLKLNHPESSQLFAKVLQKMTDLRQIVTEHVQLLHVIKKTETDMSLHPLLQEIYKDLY
# T3 sequence (Q9Y6Q9 613-752 partner limits assumed): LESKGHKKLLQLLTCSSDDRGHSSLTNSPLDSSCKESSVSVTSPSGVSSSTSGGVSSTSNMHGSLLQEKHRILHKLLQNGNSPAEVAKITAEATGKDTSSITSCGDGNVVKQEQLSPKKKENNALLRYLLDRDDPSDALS
# Experimental: as §1, §2
# CB2 = CB2 (Homo sapiens, UniProt P34972); conditions: Recht et al. 2001; cited from earlier work
# CB2, sequence (P34972 whole entry, species assumed): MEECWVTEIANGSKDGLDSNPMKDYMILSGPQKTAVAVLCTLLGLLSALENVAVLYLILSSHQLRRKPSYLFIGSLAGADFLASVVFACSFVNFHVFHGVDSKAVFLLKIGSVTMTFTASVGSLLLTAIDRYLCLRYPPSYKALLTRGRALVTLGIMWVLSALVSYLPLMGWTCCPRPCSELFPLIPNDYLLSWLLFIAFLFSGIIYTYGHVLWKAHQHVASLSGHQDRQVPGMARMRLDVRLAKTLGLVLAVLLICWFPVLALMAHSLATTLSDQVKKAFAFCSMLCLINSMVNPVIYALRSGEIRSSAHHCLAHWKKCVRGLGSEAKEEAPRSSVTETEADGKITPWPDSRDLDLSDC
smiles,measurement,setting,value
"CCCCCCC(C)(C)c1cc(O)c2c(c1)OC(C)(C)[C@@H]1CC=C(C(=O)O)C[C@@H]21 [AJA, dimethylheptyl-THC-11-oic acid]",acute inflammation,[1],suppress
same,binding of PPARγ to GST-DRIP205,[2],increased binding
same,proteinase sensitivity of PPARα,PPARα,did not affect the proteinase sensitivity
same,binding of PPARγ to GST-RAC3,[3],increased binding
same,affinity to CB2,CB2,modest affinity
